Data reported in patent US9695155B2, “Herbicidal substituted pyrimidinyloxy benzene compounds” (E. I. DU PONT DE NEMOURS AND COMPANY, priority 2013, dated 2017).

Assays:
chickweed = assay: Test C postemergence; type: in vivo, Stellaria media; settings: for Plant response rating (0 to 100), Chickweed: 16 g ai/ha, 0 is no effect, 100 is complete control; for Chickweed plant response rating: 31 g ai/ha, 13 to 15 days; for Chickweed plant response rating / Plant response rating, Chickweed: scale 0 to 100 (0 no effect, 100 complete control)
In short: (§1)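 Greenhouse herbicide screen. Pre: seeded loam/sand, sprayed at planting. Post: 1–4 leaf plants (2–18 cm) in peat-based mix. Formulation: solvent mixture + surfactant, non-phytotoxic. Readout: visual % control vs untreated, 13–15 d; dash = not tested.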

oilseed rape = assay: Test C postemergence; type: in vivo, Brassica napus; settings: for Plant response rating (0 to 100), Oilseed Rape: 16 g ai/ha, 0 is no effect, 100 is complete control; for Oilseed Rape plant response rating: 31 g ai/ha, 13 to 15 days; for Oilseed Rape plant response rating / Plant response rating, Oilseed Rape: scale 0 to 100 (0 no effect, 100 complete control)
In short: as §1

lambsquarters = assay: Test C postemergence; type: in vivo, Chenopodium album; settings: for Plant response rating (0 to 100), Lambsquarters: 16 g ai/ha, 0 is no effect, 100 is complete control; for Lambsquarters plant response rating: 31 g ai/ha, 13 to 15 days; for Lambsquarters plant response rating / Plant response rating, Lambsquarters: scale 0 to 100 (0 no effect, 100 complete control)
In short: as §1

corn = assay: Test A preemergence; type: in vivo, Zea mays; settings: 0 to 100 scale where 0 is no effect and 100 is complete control; for Plant response rating, Corn: 125 g ai/ha; for Corn plant response rating: 500 g ai/ha
In short: (§2)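 Visual injury scored 0–100 (100 = complete control) against untreated controls about 10 days after treatment in a greenhouse. Test chemicals, formulated with surfactant in non-phytotoxic solvent, were sprayed on soil preemergence or on 2-10 cm, one- to two-leaf plants postemergence.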

giant foxtail [1] = assay: Test A postemergence; type: in vivo, Setaria faberii; settings: 0 to 100 scale where 0 is no effect and 100 is complete control; for Foxtail, Giant plant response rating: 125 g ai/ha; for Plant response rating, Foxtail, Giant: 500 g ai/ha
In short: as §2

waterhemp = assay: Test C postemergence; type: in vivo, Amaranthus rudis; settings: for Plant response rating (0 to 100), Waterhemp: 16 g ai/ha, 0 is no effect, 100 is complete control; for Waterhemp plant response rating: 31 g ai/ha, 13 to 15 days; for Waterhemp plant response rating / Plant response rating, Waterhemp: scale 0 to 100 (0 no effect, 100 complete control)
In short: as §1

wheat = assay: Test A preemergence; type: in vivo, Triticum aestivum; settings: for Wheat plant response rating (0 to 100 scale): 125 g ai/ha; for Wheat plant response rating: 500 g ai/ha, 0 to 100 scale where 0 is no effect and 100 is complete control
In short: as §2

soybean = assay: Test C postemergence; type: in vivo, Glycine max; settings: for Plant response rating (0 to 100), Soybean: 16 g ai/ha, 0 is no effect, 100 is complete control; for Soybean plant response rating: 31 g ai/ha, 13 to 15 days; for Soybean plant response rating / Plant response rating, Soybean: scale 0 to 100 (0 no effect, 100 complete control)
In short: as §1

large (Lg) crabgrass = assay: Test A postemergence; type: in vivo, Digitaria sanguinalis; settings: 0 to 100 scale where 0 is no effect and 100 is complete control; for Crabgrass, Large plant response rating: 125 g ai/ha; for Plant response rating, Crabgrass, Large: 500 g ai/ha
In short: as §2

giant foxtail [2] = assay: Test A preemergence; type: in vivo, Setaria faberii; settings: 0 to 100 scale where 0 is no effect and 100 is complete control; for Plant response rating, Foxtail, Giant: 125 g ai/ha; for Foxtail, Giant plant response rating: 500 g ai/ha
In short: as §2

sedge, umbrella = assay: Test B flooded paddy test; type: in vivo, Cyperus difformis; settings: Flood, 250 g ai/ha; 0 to 100 scale where 0 is no effect and 100 is complete control
In short: (§3)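 Visual ratings on a 0 to 100 scale, where 100 means complete control, compared treated plants with controls after 13 to 15 days in a greenhouse. Treatment went into paddy water 3 cm deep over the soil, applied to plants at the 2-leaf stage.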

pigweed = assay: Test A postemergence; type: in vivo, Amaranthus retroflexus; settings: 0 to 100 scale where 0 is no effect and 100 is complete control; for Pigweed plant response rating: 125 g ai/ha; for Plant response rating, Pigweed: 500 g ai/ha
In short: as §2

galium = assay: Test C postemergence; type: in vivo, Galium aparine; settings: for Plant response rating (0 to 100), Galium: 16 g ai/ha, 0 is no effect, 100 is complete control; for Galium plant response rating: 31 g ai/ha, 13 to 15 days; for Galium plant response rating / Plant response rating, Galium: scale 0 to 100 (0 no effect, 100 complete control)
In short: as §1

rice = assay: Test B flooded paddy test; type: in vivo, Oryza sativa; settings: Flood, 250 g ai/ha; 0 to 100 scale where 0 is no effect and 100 is complete control
In short: as §3

barnyardgrass = assay: Test B flooded paddy test; type: in vivo, Echinochloa crus-galli; settings: Flood, 250 g ai/ha; 0 to 100 scale where 0 is no effect and 100 is complete control
In short: as §3

Italian ryegrass = assay: Test C postemergence; type: in vivo, Lolium multiflorum; settings: for Plant response rating (0 to 100), Ryegrass, Italian: 16 g ai/ha, 0 is no effect, 100 is complete control; for Ryegrass, Italian plant response rating: 31 g ai/ha, 13 to 15 days; for Ryegrass, Italian plant response rating / Plant response rating, Ryegrass, Italian: scale 0 to 100 (0 no effect, 100 complete control)
In short: as §1

[3] = 125 g ai/ha, postemergence, visual rating

FC(F)c1cccc(Oc2ncc(Br)cn2)c1-n1cc(C(F)(F)F)cn1 [Compound 163]
Plant response rating (0 to 100), Chickweed (chickweed; postemergence): 40
Chickweed plant response rating (chickweed; postemergence, visual rating): 80
Plant response rating, Chickweed (chickweed; [3]): 95
Plant response rating, Chickweed (chickweed; Postemergence, 62 g ai/ha): 80
Plant response rating (0 to 100), Oilseed Rape (oilseed rape; postemergence): 45
Oilseed Rape plant response rating (oilseed rape; postemergence, visual rating): 30
Plant response rating, Oilseed Rape (oilseed rape; [3]): 80
Plant response rating, Oilseed Rape (oilseed rape; Postemergence, 62 g ai/ha): 60
Plant response rating (0 to 100), Lambsquarters (lambsquarters; postemergence): 60
Lambsquarters plant response rating (lambsquarters; postemergence, visual rating): 80
Plant response rating, Lambsquarters (lambsquarters; [3]): 95
Plant response rating, Lambsquarters (lambsquarters; Postemergence, 62 g ai/ha): 85
Plant response rating, Corn (corn): 0
Corn plant response rating (corn): 10
Foxtail, Giant plant response rating (giant foxtail [1]): 50
Plant response rating, Foxtail, Giant (giant foxtail [1]): 90
Plant response rating (0 to 100), Waterhemp (waterhemp; postemergence): 75
Waterhemp plant response rating (waterhemp; postemergence, visual rating): 75
Plant response rating, Waterhemp (waterhemp; [3]): 80
Plant response rating, Waterhemp (waterhemp; Postemergence, 62 g ai/ha): 85
Wheat plant response rating (0 to 100 scale) (wheat): 0
Wheat plant response rating (wheat): 10
Plant response rating (0 to 100), Soybean (soybean; postemergence): 35
Soybean plant response rating (soybean; postemergence, visual rating): 50
Plant response rating, Soybean (soybean; [3]): 75
Plant response rating, Soybean (soybean; Postemergence, 62 g ai/ha): 80
Crabgrass, Large plant response rating (large (Lg) crabgrass): 30
Plant response rating, Crabgrass, Large (large (Lg) crabgrass): 90
Plant response rating, Foxtail, Giant (giant foxtail [2]): 100
Foxtail, Giant plant response rating (giant foxtail [2]): 100
Plant response rating, Sedge, Umbrella (sedge, umbrella): 90
Pigweed plant response rating (pigweed): 100
Plant response rating, Pigweed (pigweed): 100
Plant response rating (0 to 100), Galium (galium; postemergence): 70
Galium plant response rating (galium; postemergence, visual rating): 50
Plant response rating, Galium (galium; [3]): 95
Plant response rating, Galium (galium; Postemergence, 62 g ai/ha): 85
Plant response rating, Rice (rice): 25
Plant response rating, Barnyardgrass (barnyardgrass): 0
Plant response rating (0 to 100), Ryegrass, Italian (Italian ryegrass; postemergence): 0
Ryegrass, Italian plant response rating (Italian ryegrass; postemergence, visual rating): 0
Plant response rating, Ryegrass, Italian (Italian ryegrass; [3]): 10
Plant response rating, Ryegrass, Italian (Italian ryegrass; Postemergence, 62 g ai/ha): 0

Fc1cnc(Oc2cccc(C(F)F)c2-n2cc(C(F)(F)F)cn2)nc1 [Compound 164]
Plant response rating (0 to 100), Chickweed (chickweed; postemergence): 45
Chickweed plant response rating (chickweed; postemergence, visual rating): 50
Plant response rating, Chickweed (chickweed; [3]): 90
Plant response rating, Chickweed (chickweed; Postemergence, 62 g ai/ha): 80
Plant response rating (0 to 100), Oilseed Rape (oilseed rape; postemergence): 10
Oilseed Rape plant response rating (oilseed rape; postemergence, visual rating): 10
Plant response rating, Oilseed Rape (oilseed rape; [3]): 60
Plant response rating, Oilseed Rape (oilseed rape; Postemergence, 62 g ai/ha): 55
Plant response rating (0 to 100), Lambsquarters (lambsquarters; postemergence): 15
Lambsquarters plant response rating (lambsquarters; postemergence, visual rating): 25
Plant response rating, Lambsquarters (lambsquarters; [3]): 65
Plant response rating, Lambsquarters (lambsquarters; Postemergence, 62 g ai/ha): 40
Plant response rating, Corn (corn): 10
Corn plant response rating (corn): 60
Foxtail, Giant plant response rating (giant foxtail [1]): 90
Plant response rating, Foxtail, Giant (giant foxtail [1]): 100
Plant response rating (0 to 100), Waterhemp (waterhemp; postemergence): 50
Waterhemp plant response rating (waterhemp; postemergence, visual rating): 45
Plant response rating, Waterhemp (waterhemp; [3]): 75
Plant response rating, Waterhemp (waterhemp; Postemergence, 62 g ai/ha): 65
Wheat plant response rating (0 to 100 scale) (wheat): 20
Wheat plant response rating (wheat): 90
Plant response rating (0 to 100), Soybean (soybean; postemergence): 40
Soybean plant response rating (soybean; postemergence, visual rating): 35
Plant response rating, Soybean (soybean; [3]): 65
Plant response rating, Soybean (soybean; Postemergence, 62 g ai/ha): 75
Crabgrass, Large plant response rating (large (Lg) crabgrass): 80
Plant response rating, Crabgrass, Large (large (Lg) crabgrass): 100
Plant response rating, Foxtail, Giant (giant foxtail [2]): 90
Foxtail, Giant plant response rating (giant foxtail [2]): 100
Plant response rating, Sedge, Umbrella (sedge, umbrella): 90
Pigweed plant response rating (pigweed): 100
Plant response rating, Pigweed (pigweed): 100
Plant response rating (0 to 100), Galium (galium; postemergence): 50
Galium plant response rating (galium; postemergence, visual rating): 55
Plant response rating, Galium (galium; [3]): 65
Plant response rating, Galium (galium; Postemergence, 62 g ai/ha): 80
Plant response rating, Rice (rice): 0
Plant response rating, Barnyardgrass (barnyardgrass): 20
Plant response rating (0 to 100), Ryegrass, Italian (Italian ryegrass; postemergence): 0
Ryegrass, Italian plant response rating (Italian ryegrass; postemergence, visual rating): 0
Plant response rating, Ryegrass, Italian (Italian ryegrass; [3]): 0
Plant response rating, Ryegrass, Italian (Italian ryegrass; Postemergence, 62 g ai/ha): 0
